Experimental data published in PMC10657444, “Design and evaluation of tadpole-like conformational antimicrobial peptides” (Communications Biology, 2023).
Values after ≈ are worked out from the molar mass of the structure shown. Values joined by “and” are separate entries in the source; they are usually repeats but may differ in a detail not shown here. Equal values may be shown once. Read-outs that look alike come from different tables or passages of the source. Non-standard residues stand in square brackets, D forms with d. Residues, ends and D or L forms follow the SMILES beside them.

Key:
MRSA USA 300 [1] = assay: Transmission electron microscopy; format: cell-based, Staphylococcus aureus; conditions: 2 × MIC, 60 min
Protocol: (§1) The processing method of the samples for transmission electron microscopy (TEM) was the same as the treatment for SEM. The samples were then prefixed with 2.5% glutaraldehyde at 4°C overnight, post-fixed with osmium tetroxide for 70 min, and washed twice with PBS (pH 7.4). Subsequently, the samples were dehydrated for 10 min in a graded ethanol series (30, 50, 70, 90, and 100%) followed by 10 min in a mixture of absolute ethanol and acetone (1:1, v/v) and 10 min in absolute acetone. The specimens were transferred to a mixture of absolute acetone and epoxy resin (1:1, v/v) for 30 min and then to pure epoxy resin overnight at a constant temperature. Finally, the samples were sectioned using an ultramicrotome, stained with uranyl acetate and lead citrate, and then observed by TEM (Hitachi H-7650, Japan).

MRSA USA 300 [2] = format: cell-based, Staphylococcus aureus
Protocol: (§2) The stability of peptides in different media was assessed using the MIC assay described above. Here, the stability of HT2 and RI-HT2 in serum, salt, and different pH were analyzed using methods previously described with some modifications. For serum stability, a solution of 10% or 20% fetal bovine serum (FBS) was made by diluting fetal bovine serum with phosphate buffer saline (PBS). HT2 and RI-HT2 were added for a final concentration of 160 µg/mL of peptide in the FBS solution, and incubation 2 h. Suspension containing no peptide was considered the negative control. The MIC of HT2 and RI-HT2 against MRSA USA 300 and K. pneumoniae ATCC 700603 were measured. For the acid stability assays, the peptides were incubated with different pH values of PBS (pH = 5.5 or 6.4) at 37 °C. These peptide mixtures were then serially diluted in a 96-well plate for the evaluation of antimicrobial activity against bacterial strains. Similarly, for salt stability, the peptides were assessed for their antimicrobial activity against MRSA USA 300 and K. pneumoniae ATCC 700603 in the presence of 150 mM NaCl.

E. coli ATCC 25922 = format: cell-based, Escherichia coli
Description: (§3) Bacteria were cultivated in Luria-Bertani (LB) broth.

[3] = tested on: Gram-negative bacterial strains; format: cell-based; conditions: A. baumannii and Klebsiella pneumoniae
Description: as §3

[4] = tested on: K. pneumoniae ATCC 700603; format: cell-based, Klebsiella pneumoniae
Protocol: as §2

S. aureus ATCC 25923 = assay: Time-kill assay (growth curve, OD600); format: cell-based, Staphylococcus aureus; conditions: 16 × MIC
Protocol: Tube was inoculated (5 × 10^6 CFU/mL) with S. aureus ATCC 25923 and incubated at 37°C under shaking. Bacterial concentration was measured at each time point (0, 1, 2, 2.5, 3, 3.5, 4, 5, 6 and 7 h) by measuring absorbance at 600 nm with a microplate reader.

[5] = tested on: K. pneumoniae ATCC 700603; assay: Transmission electron microscopy; format: cell-based, Klebsiella pneumoniae; conditions: 2 × MIC, 60 min
Protocol: as §1

[6] = tested on: K. pneumoniae ATCC 700603; assay: Scanning electron microscopy; format: cell-based, Klebsiella pneumoniae; conditions: 2 × MIC, 60 min
Protocol: Mid-log phase bacteria (MRSA USA 300 and K. pneumoniae ATCC 700603) grown in LB broth were adjusted to a density of 5 × 10^6 CFU/mL. […] All samples were centrifuged at 8000 rpm for 5 min, washed and then resuspended in PBS. Bacterial cells were fixed with 2.5% glutaraldehyde, and then incubated at 37°C on a glass slide for 20 min. Samples were dehydrated by passing through gradient ethanol (10%, 30%, 50%, 70%, 90%, and 100%) for 5 min at each concentration. Slides were dried with an automatic critical point drying instrument (Leica EM CPD300), and a small amount of gold was sputtered onto the samples using a sputter coater system to avoid charging in the microscope. Finally, the bacteria were visualized under a field-emission scanning electron microscopy (FESEM) device (Sirion 200).

sheep red blood cells = assay: Hemolysis assay; conditions: for HC10 (concentration inducing 10% hemolysis): red cells of sheep, 1 h
MRSA ATCC 43300 = format: cell-based, Staphylococcus aureus; conditions: ATCC 43300
Description: as §3

MRSA = format: cell-based, Staphylococcus aureus
Description: as §3

MRSA 3393 = format: cell-based, Staphylococcus aureus; conditions: 3393
Description: as §3

MRSA USA 300 [7] = format: cell-based, Staphylococcus aureus; remark: listed apart in the source
Description: as §3

K. pneumoniae 3026 = format: cell-based, Klebsiella pneumoniae
Description: as §3

A. baumannii 1337 = format: cell-based, Acinetobacter baumannii
Description: as §3

A. baumannii 1318 = format: cell-based, Acinetobacter baumannii
Description: as §3

Structure (SMILES)	membrane and intracellular structure by TEM (in words) (MRSA USA 300 [1])	MIC against MRSA USA 300 (MRSA USA 300 [2]; USA 300) [µM]	MIC against MRSA USA 300 (MRSA USA 300 [2]; USA 300, pH 5.5) [µM]	MIC against MRSA USA 300 (MRSA USA 300 [2]; USA 300, pH 6.4) [µM]	MIC Gram- E. coli ATCC 25922 (E. coli ATCC 25922) [µM]	MIC against K. pneumoniae ATCC 700603 ([4]; 150 mM NaCl) [µM]	MIC against K. pneumoniae ATCC 700603 ([4]; Normal medium) [µM]	MIC against K. pneumoniae ATCC 700603 ([4]; pH 5.5) [µM]	MIC against K. pneumoniae ATCC 700603 ([4]; pH 6.4) [µM]	membrane and intracellular structure by TEM (in words) [5]	cell surface morphology by SEM (in words) [6]	OD450, hemolysis (Fig 2b), replicates (sheep red blood cells; 6.25 µM)	OD450, hemolysis (Fig 2b), replicates (sheep red blood cells; 12.5 µM)	HC10 (concentration inducing 10% hemolysis) (sheep red blood cells) [µM]	MIC Gram+ MRSA ATCC 43300 (MRSA ATCC 43300) [µM]	MIC Gram+ MRSA 3393 (MRSA 3393) [µM]	MIC Gram+ MRSA USA 300 (MRSA USA 300 [7]) [µM]	other results
CC[C@H](C)[C@H](NC(=O)[C@H](CCCNC(=N)N)NC(=O)[C@H](CCCNC(=N)N)NC(=O)[C@H](CC(C)C)NC(=O)[C@H](Cc1ccccc1)NC(=O)[C@@H](N)CCCNC(=N)N)C(=O)N[C@@H](Cc1ccccc1)C(=O)N[C@@H](Cc1ccccc1)C(=O)N[C@@H](Cc1ccccc1)C(=O)N[C@@H](Cc1ccccc1)C(N)=O [HT2] (H-RFLRRIFFFF-NH2)	cytoplasmic membranes became blurred and separated	3.13 (≈ 4.53 µg/mL)	3.13 (≈ 4.53 µg/mL)	3.13 (≈ 4.53 µg/mL)	3.13 (≈ 4.53 µg/mL)	12.5 (≈ 18.1 µg/mL)	6.25 (≈ 9.05 µg/mL)	12.5 (≈ 18.1 µg/mL)	6.25 (≈ 9.05 µg/mL)	cytoplasmic membranes became blurred and separated	rough, shrunken, wrinkled and partially damaged	0.02117 (2×) and 0.02078 and 0.02133 (2×) and 0.02093	0.02313 and 0.0233	> 100.0	1.57 (≈ 2.27 µg/mL)	1.57 (≈ 2.27 µg/mL)	1.57 (≈ 2.27 µg/mL)	MICs against Gram-negative bacterial strains, such as A. baumannii and Klebsiella pneumoniae [3]: 6.25 µM; MIC against K. pneumoniae ATCC 700603 ([4]; 10% FBS): 6.25 µM (≈ 9.05 µg/mL); MIC against K. pneumoniae ATCC 700603 ([4]; 20% FBS): 6.25 µM (≈ 9.05 µg/mL); time to complete inhibition of bacterial growth (S. aureus ATCC 25923): 1 h; OD600, growth curve (SI Fig 2) (S. aureus ATCC 25923; 0 h): 0.056 and 0.082 and 0.062; OD600, growth curve (SI Fig 2) (S. aureus ATCC 25923; 1 h): 0.082 and 0.091 and 0.066; OD600, growth curve (SI Fig 2) (S. aureus ATCC 25923; 2 h): 0.069 and 0.072 and 0.06; OD600, growth curve (SI Fig 2) (S. aureus ATCC 25923; 2.5 h): 0.061 and 0.073 and 0.063; OD600, growth curve (SI Fig 2) (S. aureus ATCC 25923; 3 h): 0.083 and 0.086 and 0.085; OD600, growth curve (SI Fig 2) (S. aureus ATCC 25923; 3.5 h): 0.066 and 0.069 and 0.083; OD600, growth curve (SI Fig 2) (S. aureus ATCC 25923; 4 h): 0.073 and 0.083 and 0.077; OD600, growth curve (SI Fig 2) (S. aureus ATCC 25923; 5 h): 0.07 and 0.073 and 0.058; OD600, growth curve (SI Fig 2) (S. aureus ATCC 25923; 6 h): 0.08 and 0.081 and 0.078; OD600, growth curve (SI Fig 2) (S. aureus ATCC 25923; 7 h): 0.077 and 0.084 and 0.075; MICs against Gram-positive bacterial strains (MRSA): 1.57 to 3.13 µM
CC[C@@H](C)[C@@H](NC(=O)[C@@H](Cc1ccccc1)NC(=O)[C@@H](Cc1ccccc1)NC(=O)[C@@H](Cc1ccccc1)NC(=O)[C@H](N)Cc1ccccc1)C(=O)N[C@H](CCCNC(=N)N)C(=O)N[C@H](CCCNC(=N)N)C(=O)N[C@H](CC(C)C)C(=O)N[C@H](Cc1ccccc1)C(=O)N[C@H](CCCNC(=N)N)C(N)=O [RI-HT2] (H-[dF][dF][dF][dF][dI][dR][dR][dL][dF][dR]-NH2; N-terminus assumed)	cytoplasmic membranes became blurred and separated	3.13 (≈ 4.53 µg/mL)	3.13 (≈ 4.53 µg/mL)	3.13 (≈ 4.53 µg/mL)	3.13 (≈ 4.53 µg/mL)	12.5 (≈ 18.1 µg/mL)	6.25 (≈ 9.05 µg/mL)	12.5 (≈ 18.1 µg/mL)	12.5 (≈ 18.1 µg/mL)	cytoplasmic membranes became blurred and separated	rough, shrunken, wrinkled and partially damaged	0.01607 (2×) and 0.02078 and 0.0162 (2×) and 0.02093	0.02038 (2×) and 0.02274 and 0.02054 (2×) and 0.02291	> 100.0	3.13 (≈ 4.53 µg/mL)	3.13 (≈ 4.53 µg/mL)	3.13 (≈ 4.53 µg/mL)	MIC Gram- K. p 3026 (K. pneumoniae 3026): 3.13 µM (≈ 4.53 µg/mL); MIC Gram- A. b 1337 (A. baumannii 1337): 3.13 µM (≈ 4.53 µg/mL); MIC Gram- A. b 1318 (A. baumannii 1318): 3.13 µM (≈ 4.53 µg/mL); MIC against K. pneumoniae ATCC 700603 ([4]; ATCC 700603): >100 µM
